Experiment [1] has as its target T1, BRAF V600E (Homo sapiens, UniProt P15056+Q96SW2, V600E).
T1 construct: knock-in of the HiBiT tag to the endogenous BRAF V600E locus; host or cells: A375.10 (A375 clonal line, CRISPR HiBiT knock-in at the endogenous BRAF V600E locus)
Nature of the experiment: BRAF V600E HiBiT Degradation Assay. Particulars: for Emax: residual protein remaining. The format is cell-based. In outline:
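Endogenous HiBiT knock-in on BRAF V600E in A375 cells (clone A375.10); 11-point half-log series, top 10 μM, 2, 6 or 24 h at 37° C. Lytic HiBiT luminescence, background-subtracted, normalized to DMSO; 4-parameter fit gives DC50, Emax (residual protein) and IP (inflection point).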
For orientation: With HiBiT, luminescence reflects the tagged protein that the partner subunit can reach.

Experiment [2] concerns A375-NRAS^Q61K cells. Description: CTGlo Cell Viability Assay, A375-NRAS^Q61K (A375.11) cells, 96 hours. It counts as cell-based, human. As to conditions: Homo sapiens, 96 h, A375.11 (A375-NRAS^Q61K) cells; for Emax: lowest % viability achieved. The essentials: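 Viability as CellTiter-Glo ATP luminescence after 96 h compound exposure at 37 °C; A375.11 (BRAF V600E/NRAS Q61K) cells at 250/well, top final concentration 10 μM in half-log steps. Signal was background-corrected and set relative to DMSO controls. A 4-parameter logistic fit gave GI50 (50% crossing) and Emax.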

The mark [3] stands for this setting: A375.10 cells, BRAF V600E, 2 hours, inflection point, read-out: HiBiT-Degradation A375.10 BRAF 2 hours IP.
Setting [4] is: A375.10 cells, BRAF V600E, 2 hours, read-out: HiBiT-Degradation A375.10 BRAF 2 hours DC50.
Where [5] appears, read: A375.10 cells, BRAF V600E, 2 hours, read-out: HiBiT-Degradation A375.10 BRAF 2 hours Emax.
[6] abbreviates: read-out: HiBiT-Degradation A375.10 BRAF 2 hours DC50, A375.10 cells, BRAF V600E, 2 hours.
[7] abbreviates: read-out: HiBiT-Degradation A375.10 BRAF 2 hours IP, A375.10 cells, BRAF V600E, 2 hours, inflection point.
Setting [8] is: read-out: HiBiT-Degradation A375.10 BRAF 2 hours Emax, A375.10 cells, BRAF V600E, 2 hours.

Read-outs that look alike come from different tables or passages of the source.

T1 sequence (P15056 whole entry V600E): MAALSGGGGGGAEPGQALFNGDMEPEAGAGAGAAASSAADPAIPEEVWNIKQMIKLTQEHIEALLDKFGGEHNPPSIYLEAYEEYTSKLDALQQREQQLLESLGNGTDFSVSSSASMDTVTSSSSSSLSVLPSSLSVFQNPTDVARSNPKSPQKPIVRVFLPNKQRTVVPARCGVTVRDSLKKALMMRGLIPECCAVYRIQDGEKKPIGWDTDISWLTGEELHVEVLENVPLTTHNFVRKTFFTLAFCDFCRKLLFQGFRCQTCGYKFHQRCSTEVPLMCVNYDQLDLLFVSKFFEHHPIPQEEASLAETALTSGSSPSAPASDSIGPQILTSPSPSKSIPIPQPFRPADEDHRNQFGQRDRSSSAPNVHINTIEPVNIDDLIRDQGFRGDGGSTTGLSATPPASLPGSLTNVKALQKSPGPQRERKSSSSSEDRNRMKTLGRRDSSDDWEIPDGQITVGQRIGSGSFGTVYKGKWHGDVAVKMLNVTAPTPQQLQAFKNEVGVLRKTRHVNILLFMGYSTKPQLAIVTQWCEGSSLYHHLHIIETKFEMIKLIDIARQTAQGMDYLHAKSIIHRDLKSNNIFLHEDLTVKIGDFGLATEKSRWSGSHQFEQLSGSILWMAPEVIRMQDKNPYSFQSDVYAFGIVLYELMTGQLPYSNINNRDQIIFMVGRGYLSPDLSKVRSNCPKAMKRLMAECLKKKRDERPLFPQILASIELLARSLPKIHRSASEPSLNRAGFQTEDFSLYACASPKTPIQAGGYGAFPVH
T1 sequence (Q96SW2 whole entry): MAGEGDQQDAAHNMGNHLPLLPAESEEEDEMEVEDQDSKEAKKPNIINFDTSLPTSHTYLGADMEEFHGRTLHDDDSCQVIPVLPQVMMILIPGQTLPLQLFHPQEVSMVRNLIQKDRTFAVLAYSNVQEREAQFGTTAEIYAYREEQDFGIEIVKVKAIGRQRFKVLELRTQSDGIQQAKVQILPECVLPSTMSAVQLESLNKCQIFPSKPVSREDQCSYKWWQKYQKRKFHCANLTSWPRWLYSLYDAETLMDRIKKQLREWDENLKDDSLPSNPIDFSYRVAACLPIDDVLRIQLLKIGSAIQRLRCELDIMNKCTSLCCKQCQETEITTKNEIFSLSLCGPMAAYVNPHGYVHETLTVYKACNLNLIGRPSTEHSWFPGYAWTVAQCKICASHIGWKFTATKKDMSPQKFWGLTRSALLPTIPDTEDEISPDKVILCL
T1 sequence (Q16531 whole entry partner): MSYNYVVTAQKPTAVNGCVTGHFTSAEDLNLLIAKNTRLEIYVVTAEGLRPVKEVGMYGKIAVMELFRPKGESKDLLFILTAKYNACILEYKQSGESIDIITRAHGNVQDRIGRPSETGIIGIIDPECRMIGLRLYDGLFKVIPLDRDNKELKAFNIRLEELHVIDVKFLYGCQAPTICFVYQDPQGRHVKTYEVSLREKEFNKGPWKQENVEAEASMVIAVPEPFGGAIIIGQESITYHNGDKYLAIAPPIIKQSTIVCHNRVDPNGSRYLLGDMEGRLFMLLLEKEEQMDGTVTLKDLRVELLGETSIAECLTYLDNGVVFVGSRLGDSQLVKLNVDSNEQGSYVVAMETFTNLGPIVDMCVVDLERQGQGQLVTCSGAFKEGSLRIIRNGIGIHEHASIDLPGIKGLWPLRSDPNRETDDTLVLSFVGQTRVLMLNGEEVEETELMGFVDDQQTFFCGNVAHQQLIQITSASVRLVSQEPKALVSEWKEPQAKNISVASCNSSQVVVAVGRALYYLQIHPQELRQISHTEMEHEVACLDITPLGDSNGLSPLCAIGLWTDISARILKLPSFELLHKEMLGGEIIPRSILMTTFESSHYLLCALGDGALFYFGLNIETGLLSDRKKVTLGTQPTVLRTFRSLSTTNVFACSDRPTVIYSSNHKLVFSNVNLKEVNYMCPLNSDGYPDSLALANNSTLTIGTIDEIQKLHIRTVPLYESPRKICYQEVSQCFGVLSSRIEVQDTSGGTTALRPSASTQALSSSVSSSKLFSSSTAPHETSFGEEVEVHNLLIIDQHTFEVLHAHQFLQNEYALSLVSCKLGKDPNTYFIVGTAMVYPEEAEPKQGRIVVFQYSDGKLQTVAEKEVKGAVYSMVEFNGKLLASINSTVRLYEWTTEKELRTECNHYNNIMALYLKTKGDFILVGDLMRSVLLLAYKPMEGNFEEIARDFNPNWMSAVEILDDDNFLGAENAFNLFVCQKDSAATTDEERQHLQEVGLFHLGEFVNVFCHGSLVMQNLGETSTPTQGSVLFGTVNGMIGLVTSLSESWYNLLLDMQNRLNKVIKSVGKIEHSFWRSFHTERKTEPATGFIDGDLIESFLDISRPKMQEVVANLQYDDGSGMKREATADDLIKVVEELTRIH

For the compound `CCN(C)S(=O)(=O)Nc1ccc(F)c(Oc2ccc3ncc(C4CC5(CCN(C6CCN(c7cc8c(cc7F)c(N7CCC(=O)NC7=O)nn8C)CC6)CC5)C4)nc3c2)c1C#N` [Compound 256, 7-[2-cyano-3-[[ethyl(methyl)sulfamoyl]amino]-6-fluoro-phenoxy]-2-[7-[1-[3-(2,4-dioxohexahydropyrimidin-1-yl)-5-fluoro-1-methyl-indazol-6-yl]-4-piperidyl]-7-azaspiro[3.5]nonan-2-yl]quinoxaline], the DC50 in experiment [1] (setting [3]) and in experiment [1] (setting [4]) was below 1000 nM in each case. The figures for the Emax in experiment [1] (setting [5]) and in experiment [2] were below 50% and 50 to 90%, respectively. Besides, the GI50 in experiment [2] was below 1000 nM.
For the compound `CCN(C)S(=O)(=O)Nc1ccc(F)c(Oc2ccc3ncn(CC4CCN(C5CC6(C5)CN(c5cc7c(cc5F)c(N5CCC(=O)NC5=O)nn7C)C6)CC4)c(=O)c3c2)c1C#N` [Compound 258, 6-[2-cyano-3-[[ethyl(methyl)sulfamoyl]amino]-6-fluoro-phenoxy]-3-[[1-[2-[3-(2,4-dioxohexahydropyrimidin-1-yl)-5-fluoro-1-methyl-indazol-6-yl]-2-azaspiro[3.3]heptan-6-yl]-4-piperidyl]methyl]-4-oxo-quinazoline], the DC50 in experiment [1] (setting [3]) is below 1000 nM; in experiment [1] (setting [4]), 1000 to 10000 nM. Moreover, the Emax in experiment [1] (setting [5]) and in experiment [2] was 50 to 90% in each case. In experiment [2], this compound showed a GI50 above 10000 nM.
Take `Cn1nc(N2CCC(=O)NC2=O)c2cc(F)c(N3CC4(CC(N5CCC6(CC5)CC(n5cnc7ccc(Oc8c(F)ccc(NS(=O)(=O)N9CCOCC9)c8C#N)cc7c5=O)C6)C4)C3)cc21` [Compound 262, N-[2-cyano-3-[3-[7-[2-[3-(2,4-dioxohexahydropyrimidin-1-yl)-5-fluoro-1-methyl-indazol-6-yl]-2-azaspiro[3.3]heptan-6-yl]-7-azaspiro[3.5]nonan-2-yl]-4-oxo-quinazolin-6-yl]oxy-4-fluoro-phenyl]morpholine-4-sulfonamide]: the DC50 in experiment [1] (setting [3]) and in experiment [1] (setting [4]) was below 1000 nM throughout. The results for the Emax in experiment [1] (setting [5]) and in experiment [2] were below 50% and 50 to 90%, respectively. For the same compound, the GI50 in experiment [2] was below 1000 nM.
Turning to `Cn1nc(N2CCC(=O)NC2=O)c2cc(F)c(N3CC4(CC(N5CCC6(CC5)CC(n5cnc7ccc(Oc8c(F)ccc(NS(=O)(=O)C9CCOCC9)c8C#N)cc7c5=O)C6)C4)C3)cc21` [Compound 263, N-[2-cyano-3-[3-[7-[2-[3-(2,4-dioxohexahydropyrimidin-1-yl)-5-fluoro-1-methyl-indazol-6-yl]-2-azaspiro[3.3]heptan-6-yl]-7-azaspiro[3.5]nonan-2-yl]-4-oxo-quinazolin-6-yl]oxy-4-fluoro-phenyl]tetrahydropyran-4-sulfonamide], the Emax in experiment [1] (setting [5]) was below 50%; in experiment [2], 50 to 90%. Besides, the DC50 in experiment [1] (setting [6]) and in experiment [1] (setting [7]) was below 1000 nM in each case. This compound showed a GI50 in experiment [2] above 10000 nM.
In the case of `CCN(C)S(=O)(=O)Nc1ccc(F)c(Oc2ccc3ncn(CC4CCN(C5CCN(c6cc7c(cc6F)c(N6CCC(=O)NC6=O)nn7C)CC5)CC4)c(=O)c3c2)c1C#N` [Compound 264, 6-[2-cyano-3-[[ethyl(methyl)sulfamoyl]amino]-6-fluoro-phenoxy]-3-[[1-[1-[3-(2,4-dioxohexahydropyrimidin-1-yl)-5-fluoro-1-methyl-indazol-6-yl]-4-piperidyl]-4-piperidyl]methyl]-4-oxo-quinazoline], the DC50 in experiment [1] (setting [3]) and in experiment [1] (setting [4]) was below 1000 nM throughout. The Emax in experiment [1] (setting [5]) was below 50%; in experiment [2] it was 50 to 90%. Moreover, in experiment [2], the GI50 fell in the range of 1000 to 10000 nM.
Consider `Cn1nc(N2CCC(=O)NC2=O)c2cc(F)c(N3CC4(CC(N5CCC6(CC5)CC(c5cnc7ccc(Oc8c(F)ccc(NS(=O)(=O)N9CC[C@@H](F)C9)c8C#N)cc7n5)C6)C4)C3)cc21` [Compound 265, (3R)-N-[2-cyano-3-[3-[7-[2-[3-(2,4-dioxohexahydropyrimidin-1-yl)-5-fluoro-1-methyl-indazol-6-yl]-2-azaspiro [3.3]heptan-6-yl]-7-azaspiro [3.5]nonan-2-yl]quinoxalin-6-yl]oxy-4-fluoro-phenyl]-3-fluoro-pyrrolidine-1-sulfonamide], for which the Emax in experiment [1] (setting [5]) and in experiment [2] was below 50% throughout. Moreover, the DC50 in experiment [1] (setting [6]) and in experiment [1] (setting [7]) was below 1000 nM in each case. The compound further gave a GI50 in experiment [2] below 1000 nM.
Consider `CCN(C)S(=O)(=O)Nc1ccc(F)c(Oc2ccc3ncn(C4CC5(CCN(C6CC7(CCN(c8cc9c(cc8F)c(N8CCC(=O)NC8=O)nn9C)CC7)C6)C5)C4)c(=O)c3c2)c1C#N` (stereo not drawn) [Compound 266, 6-[2-cyano-3-[[ethyl(methyl)sulfamoyl]amino]-6-fluoro-phenoxy]-3-[6-[7-[3-(2,4-dioxohexahydropyrimidin-1-yl)-5-fluoro-1-methyl-indazol-6-yl]-7-azaspiro[3.5]nonan-2-yl]-6-azaspiro[3.4]octan-2-yl]-4-oxo-quinazoline], for which the DC50 in experiment [1] (setting [3]) and in experiment [1] (setting [4]) was below 1000 nM each time. For the same compound, the Emax in experiment [1] (setting [5]) and in experiment [2] was 50 to 90% throughout. This compound also gave a GI50 in experiment [2] above 10000 nM.
As for `Cn1nc(N2CCC(=O)NC2=O)c2cc(F)c(C3CCC(N4CCC5(CC4)CC(c4cnc6ccc(Oc7c(F)ccc(NS(=O)(=O)N8CC[C@@H](F)C8)c7C#N)cc6n4)C5)CC3)cc21` (stereo partly drawn) [Compound 267, (3R)-N-[2-cyano-3-[3-[7-[4-[3-(2,4-dioxohexahydropyrimidin-1-yl)-5-fluoro-1-methyl-indazol-6-yl]cyclohexyl]-7-azaspiro[3.5]nonan-2-yl]quinoxalin-6-yl]oxy-4-fluoro-phenyl]-3-fluoro-pyrrolidine-1-sulfonamide], the DC50 in experiment [1] (setting [3]) and in experiment [1] (setting [4]) was below 1000 nM in each case. The Emax in experiment [1] (setting [8]) and in experiment [2] was below 50% throughout. This compound also had a concentration for 50% growth inhibition (GI50) in experiment [2] below 1000 nM.
Turning to `CO[C@H]1CCN(S(=O)(=O)Nc2ccc(F)c(Oc3ccc4ncn(C5CC6(CCN(C7CC8(C7)CN(c7cc9c(cc7F)c(N7CCC(=O)NC7=O)nn9C)C8)CC6)C5)c(=O)c4c3)c2C#N)C1` (stereo partly drawn) [Compound 272, (3S)-N-[2-cyano-3-[3-[7-[2-[3-(2,4-dioxohexahydropyrimidin-1-yl)-5-fluoro-1-methyl-indazol-6-yl]-2-azaspiro[3.3]heptan-6-yl]-7-azaspiro[3.5]nonan-2-yl]-4-oxo-quinazolin-6-yl]oxy-4-fluoro-phenyl]-3-methoxy-pyrrolidine-1-sulfonamide], the DC50 in experiment [1] (setting [6]) and in experiment [1] (setting [7]) was below 1000 nM throughout. Besides, the Emax in experiment [1] (setting [8]) is below 50%; in experiment [2], 50 to 90%. The compound further showed a GI50 in experiment [2] above 10000 nM.
Take `CCN(C)S(=O)(=O)Nc1ccc(F)c(Oc2ccc3ncn(C4CCN(C5CC6(CCN(c7cc8c(cc7F)c(N7CCC(=O)NC7=O)nn8C)CC6)C5)CC4)c(=O)c3c2)c1C#N` [Compound 274, 6-[2-cyano-3-[[ethyl(methyl)sulfamoyl]amino]-6-fluoro-phenoxy]-3-[1-[7-[3-(2,4-dioxohexahydropyrimidin-1-yl)-5-fluoro-1-methyl-indazol-6-yl]-7-azaspiro[3.5]nonan-2-yl]-4-piperidyl]-4-oxo-quinazoline]: the DC50 in experiment [1] (setting [3]) and in experiment [1] (setting [4]) was below 1000 nM throughout. In addition, the Emax in experiment [1] (setting [5]) and in experiment [2] was below 50% throughout. In addition, the GI50 in experiment [2] was below 1000 nM.
With `CO[C@@H]1CCN(S(=O)(=O)Nc2ccc(F)c(Oc3ccc4ncc(C5CC6(CCN(C7CC8(C7)CN(c7cc9c(cc7F)c(N7CCC(=O)NC7=O)nn9C)C8)CC6)C5)nc4c3)c2C#N)C1` (stereo partly drawn) [Compound 278, (3R)-N-[2-cyano-3-[3-[7-[2-[3-(2,4-dioxohexahydropyrimidin-1-yl)-5-fluoro-1-methyl-indazol-6-yl]-2-azaspiro[3.3]heptan-6-yl]-7-azaspiro[3.5]nonan-2-yl]quinoxalin-6-yl]oxy-4-fluoro-phenyl]-3-methoxy-pyrrolidine-1-sulfonamide], the Emax in experiment [1] (setting [5]) and in experiment [2] was below 50% in each case. The DC50 in experiment [1] (setting [6]) and in experiment [1] (setting [7]) was below 1000 nM throughout. The compound also gave a GI50 in experiment [2] below 1000 nM.
Turning to `CO[C@H]1CCN(S(=O)(=O)Nc2ccc(F)c(Oc3ccc4ncc(C5CC6(CCN(C7CC8(C7)CN(c7cc9c(cc7F)c(N7CCC(=O)NC7=O)nn9C)C8)CC6)C5)nc4c3)c2C#N)C1` (stereo partly drawn) [Compound 279, (3S)-N-[2-cyano-3-[3-[7-[2-[3-(2,4-dioxohexahydropyrimidin-1-yl)-5-fluoro-1-methyl-indazol-6-yl]-2-azaspiro[3.3]heptan-6-yl]-7-azaspiro[3.5]nonan-2-yl]quinoxalin-6-yl]oxy-4-fluoro-phenyl]-3-methoxy-pyrrolidine-1-sulfonamide], the Emax in experiment [1] (setting [5]) and in experiment [2] was 50 to 90% in each case. Besides, the DC50 in experiment [1] (setting [6]) and in experiment [1] (setting [7]) was below 1000 nM throughout. For the same compound, the GI50 in experiment [2] is above 10000 nM.

A word on the GI50: it is the concentration at which growth is held to half of that of the control. A low value points to more potent growth inhibition.

These data come from patent US20260297060A1, “COMPOUNDS FOR THE DEGRADATION OF MUTANT BRAF” (C4 THERAPEUTICS, INC., priority 2023, published 2026).
